Among the data in patent US8669361B2, “Pyrazol-4-yl-heterocyclyl-carboxamide compounds and methods of use” (Genentech, Inc., priority 2010, dated 2014) are Ki values, retold here.

Structures are written as SMILES.

What all share (experiment): Pim kinase binding activity, Caliper LC3000 microfluidic peptide phosphorylation assay (Example 901)
What all share (type): biochemical

Assay [1] concerns the target PIM2 (Homo sapiens (Human), UniProt Q9P1W9). As to conditions: 50 pM PIM2, 1 μM FAM-peptide, 10 μM ATP, 90 minutes at room temperature; read-out: PIM2 LC3K (KI). Here is the method: (§1) A fluorescent-labeled Pim-specific peptide substrate, was custom synthesized by American Peptide Company (Sunnyvale, Calif.). Reaction Buffer contained 10 mM HEPES, pH 7.2, 10 mM MgCl2, 0.01% Tween 20, 2 mM DTT. Termination Buffer contained 190 mM HEPES, pH 7.2, 0.015% Brij-35, 0.2% Coating Reagent 3 (Caliper Life Sciences, Hopkinton, Mass.), 20 mM EDTA. Separation Buffer contained 100 mM HEPES, pH 7.2, 0.015% Brij-35, 0.1% Coating Reagent 3, 1:200 Coating Reagent 8 (Caliper Life Sciences, Hopkinton, Mass.), 10 mM EDTA and 5% DMSO.
PIM reactions were carried out in a final volume of 10 μL per well in a 384-well plate. […] After 90 minutes of incubation at room temperature, the phosphorylation reaction was stopped by the addition of 10 μL Termination Buffer. The product and substrate in each independent reaction were separated on a 12-sipper microfluidic chip (Caliper Life Sciences, Hopkinton, Mass.) run on a Caliper LC3000® (Caliper Life Sciences, Hopkinton, Mass.). The separation of product and substrate was optimized by choosing voltages and pressure using Caliper's Optimizer software (Hopkinton, Mass.). The separation conditions used a downstream voltage of −500V, an upstream voltage of −2150V, and a screening pressure of −1.2 psi. […] Substrate conversion was calculated from the electropherogram using HTS Well Analyzer software (Caliper Life Sciences, Hopkinton, Mass.). Ki values for the test compound were calculated.

Assay [2] concerns the target PIM1 (Homo sapiens (Human), UniProt P11309). The settings on record: 20 pM PIM1, 1 μM FAM-peptide, 10 μM ATP, 90 minutes at room temperature; read-out: PIM1 LC3K (KI). How it is done:
as §1, with “PIM-1, -2, and -3 enzymes were generated as fusion proteins expressed in bacteria and purified by IMAC column chromatography (Sun, X., Chiu, J. F., and He, Q. Y. (2005) Expert Rev. Proteomics, 2:649-657). A fluorescent-labeled” for “A fluorescent-labeled”
(§2) PIM reactions were carried out in a final volume of 10 μL per well in a 384-well plate. A standard enzymatic reaction, initiated by the addition of 5 μL 2×ATP and test compound to 5 μL of 2× enzyme and FAM-peptide, contained 20 pM PIM1, 50 pM PIM2, or 55 pM PIM3, 1 μM FAM-peptide, and 10 μM ATP, in Reaction Buffer. After 90 minutes of incubation at room temperature, the phosphorylation reaction was stopped by the addition of 10 μL Termination Buffer. The product and substrate in each independent reaction were separated on a 12-sipper microfluidic chip (Caliper Life Sciences, Hopkinton, Mass.) run on a Caliper LC3000® (Caliper Life Sciences, Hopkinton, Mass.). The separation of product and substrate was optimized by choosing voltages and pressure using Caliper's Optimizer software (Hopkinton, Mass.). The separation conditions used a downstream voltage of −500V, an upstream voltage of −2150V, and a screening pressure of −1.2 psi. The product and substrate fluorophore were excited at 488 nm and detected at 530 nm. Substrate conversion was calculated from the electropherogram using HTS Well Analyzer software (Caliper Life Sciences, Hopkinton, Mass.). Ki values for the test compound were calculated.

Assay [3] concerns the target PIM3 (Homo sapiens (Human), UniProt Q86V86). The settings on record: 55 pM PIM3, 1 μM FAM-peptide, 10 μM ATP, 90 minutes at room temperature; read-out: PIM3 LC3K (KI). Here is the method:
as §1, with “PIM-1, -2, and -3 enzymes were generated as fusion proteins expressed in bacteria and purified by IMAC column chromatography (Sun, X., Chiu, J. F., and He, Q. Y. (2005) Expert Rev. Proteomics, 2:649-657). A fluorescent-labeled” for “A fluorescent-labeled”
as §2

Sequence of PIM2 (Q9P1W9 whole entry): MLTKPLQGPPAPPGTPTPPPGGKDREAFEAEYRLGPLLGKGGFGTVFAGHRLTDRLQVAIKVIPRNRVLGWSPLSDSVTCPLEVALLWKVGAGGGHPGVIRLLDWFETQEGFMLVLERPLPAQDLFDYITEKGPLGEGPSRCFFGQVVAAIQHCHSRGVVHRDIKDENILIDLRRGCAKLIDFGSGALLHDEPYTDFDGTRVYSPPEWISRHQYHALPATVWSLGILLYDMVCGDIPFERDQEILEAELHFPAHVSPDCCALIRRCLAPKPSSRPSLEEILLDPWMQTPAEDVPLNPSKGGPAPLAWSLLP
Sequence of PIM1 (P11309 whole entry, the tested form may be a part): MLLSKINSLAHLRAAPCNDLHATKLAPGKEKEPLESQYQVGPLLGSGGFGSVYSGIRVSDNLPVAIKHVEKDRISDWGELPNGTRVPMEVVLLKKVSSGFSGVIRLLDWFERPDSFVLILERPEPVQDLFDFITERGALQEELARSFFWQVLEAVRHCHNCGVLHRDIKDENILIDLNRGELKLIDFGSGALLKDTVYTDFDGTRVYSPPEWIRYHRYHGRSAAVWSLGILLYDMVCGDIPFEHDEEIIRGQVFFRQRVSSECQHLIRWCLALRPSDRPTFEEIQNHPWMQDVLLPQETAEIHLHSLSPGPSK

Consider `Cn1ncc(NC(=O)c2nc(-c3ccccc3F)sc2N)c1N1CCC[C@H](N)C1` [Example 107, (S)-5-amino-N-(5-(3-aminopiperidin-1-yl)-1-methyl-1H-pyrazol-4-yl)-2-(2-fluorophenyl)thiazole-4-carboxamide], for which the Ki in assay [1] came out at 20.1 nM; in assay [2] it was 1.22 nM; in assay [3] it was 0.575 nM.
On to `Cn1ncc(NC(=O)c2nc(-c3c(F)cccc3F)sc2N)c1C1CCC(N)CC1` (centres unmarked) [Example 369, 5-amino-N-(5-(4-aminocyclohexyl)-1-methyl-1H-pyrazol-4-yl)-2-(2,6-difluorophenyl)thiazole-4-carboxamide], for which the Ki is 12.5 nM in assay [1], 0.462 nM in assay [2] and 0.735 nM in assay [3].
In the case of `Cn1ncc(NC(=O)c2nc(-c3ccccc3)ccc2N)c1N1CCC(N)CC1` [Example 109, 3-amino-N-(5-(4-aminopiperidin-1-yl)-1-methyl-1H-pyrazol-4-yl)-6-phenylpicolinamide], the Ki is 41.1 nM in assay [1], 0.762 nM in assay [2] and 2.63 nM in assay [3].
In the case of `CCn1ncc(NC(=O)c2nc(-c3ccccc3F)sc2N)c1N1CCC[C@@H](N)CC1` [Example 364, (R)-5-Amino-N-(5-(4-aminoazepan-1-yl)-1-ethyl-1H-pyrazol-4-yl)-2-(2-fluorophenyl)thiazole-4-carboxamide], the Ki in assay [1] turned out to be 124 nM; in assay [2], 20 nM; in assay [3] it was 24 nM.
`CN1CCC(c2c(NC(=O)c3nc(-c4c(F)cccc4F)sc3N)cnn2C)CC1` [Example 231, 5-amino-2-(2,6-difluorophenyl)-N-(1-methyl-5-(1-methylpiperidin-4-yl)-1H-pyrazol-4-yl)thiazole-4-carboxamide]: the results for the inhibition constant Ki in assay [1], in assay [2] and in assay [3] were 201 nM, 7.65 nM and 5.26 nM, respectively.
For `Cn1ncc(NC(=O)c2nc(-c3ccccc3F)ccc2N)c1N1CCC[C@H](N)CC1` [Example 142, (S)-3-amino-N-(5-(4-aminoazepan-1-yl)-1-methyl-1H-pyrazol-4-yl)-6-(2-fluorophenyl)picolinamide], in that order: 3.13 nM, 0.368 nM and 0.245 nM.
For `Cn1ncc(NC(=O)c2cncc(-c3ccccc3F)n2)c1N1CCC[C@H](N)CC1` [Example 220, (S)—N-(5-(4-aminoazepan-1-yl)-1-methyl-1H-pyrazol-4-yl)-6-(2-fluorophenyl)pyrazine-2-carboxamide], the Ki in assay [1] came to 581 nM; in assay [2], 22 nM; in assay [3] it was 34.2 nM.
Take `Cn1ncc(NC(=O)c2nc(Cl)cnc2N)c1N1CCC[C@H](N)C1` [Example 123, (S)-3-amino-N-(5-(3-aminopiperidin-1-yl)-1-methyl-1H-pyrazol-4-yl)-6-chloropyrazine-2-carboxamide]: the figures for the Ki in assay [1], in assay [2] and in assay [3] were 587 nM, 137 nM and 215 nM, respectively.
In the case of `Cn1ncc(NC(=O)c2nc(-c3c(F)cccc3F)sc2N)c1C1CCNCC1` [Example 263, 5-amino-2-(2,6-difluorophenyl)-N-(1-methyl-5-(piperidin-4-yl)-1H-pyrazol-4-yl)thiazole-4-carboxamide], the Ki in assay [1] was 185 nM; in assay [2], 10.4 nM; in assay [3] it was 6.12 nM.
Take `Cn1ncc(NC(=O)c2nc(-c3ccccc3F)ccc2N)c1N1CCC[C@@H](N)C1` [Example 112, (R)-3-amino-N-(5-(3-aminopiperidin-1-yl)-1-methyl-1H-pyrazol-4-yl)-6-(2-fluorophenyl)picolinamide]: the results for the Ki in assay [1], in assay [2] and in assay [3] were 2.49 nM, 0.246 nM and 0.34 nM, respectively.
In the case of `Cn1ncc(NC(=O)c2nc(-c3ccccc3F)ccc2N)c1OC1CCNCC1` [Example 116, 3-amino-6-(2-fluorophenyl)-N-(1-methyl-5-(piperidin-4-yloxy)-1H-pyrazol-4-yl)picolinamide], the Ki in assay [1] turned out to be 26.2 nM; in assay [2], 4.36 nM; in assay [3], 4.97 nM.
As to `Cn1ncc(NC(=O)c2nc(-c3c(F)cccc3F)sc2N)c1NCC1CCNCC1` [Example 105, 5-amino-2-(2,6-difluorophenyl)-N-(1-methyl-5-(piperidin-4-ylmethylamino)-1H-pyrazol-4-yl)thiazole-4-carboxamide], the Ki amounted to 148 nM in assay [1], 4.54 nM in assay [2] and 5.77 nM in assay [3].
With `Cn1ncc(NC(=O)c2ccc(F)c(-c3c(F)cccc3F)n2)c1N1CCC[C@@H](N)CC1` [Example 238, (R)—N-(5-(4-aminoazepan-1-yl)-1-methyl-1H-pyrazol-4-yl)-6-(2,6-difluorophenyl)-5-fluoropicolinamide], the Ki in assay [1] worked out at 17.3 nM; in assay [2], 0.897 nM; in assay [3], 2.48 nM.
With `Cn1cc(NC(=O)c2nc(-c3c(F)cccc3F)sc2N)cn1` [Example 102, 5-amino-2-(2,6-difluorophenyl)-N-(1-methyl-1H-pyrazol-4-yl)thiazole-4-carboxamide], the Ki in assay [1] stood at 110 nM; in assay [2], 16 nM; in assay [3] it was 8.8 nM.
For `Nc1sc(-c2c(F)cccc2F)nc1C(=O)Nc1cnn(CCF)c1` [Example 353, 5-amino-2-(2,6-difluorophenyl)-N-(1-(2-fluoroethyl)-1H-pyrazol-4-yl)thiazole-4-carboxamide], in that order: 38 nM, 11.9 nM and 19 nM.
For `CN[C@H]1CCCN(c2c(NC(=O)c3nc(-c4c(F)cccc4F)sc3N)cnn2C)CC1` [Example 328, (S)-5-amino-2-(2,6-difluorophenyl)-N-(1-methyl-5-(4-(methylamino)azepan-1-yl)-1H-pyrazol-4-yl)thiazole-4-carboxamide], the figures for the Ki in assay [1], in assay [2] and in assay [3] were 4.37 nM, 0.096 nM and 0.176 nM, respectively.
As for `Cn1ncc(NC(=O)c2nc(-c3ccccc3F)ccc2N)c1N1CC[C@@H](N)C1` [Example 124, (R)-3-amino-N-(5-(3-aminopyrrolidin-1-yl)-1-methyl-1H-pyrazol-4-yl)-6-(2-fluorophenyl)picolinamide], the figures for the Ki in assay [1] and in assay [3] were 28.5 nM and 3.79 nM, respectively.
